Data from US12508323B2, “Method of treatment of colorectal, breast and lung cancer with metal containing immune agonist complexes” (HANGZHOU XINGAO BIOTECHNOLOGY CO., LTD., priority 2020, dated 2025).

Experiments:
[1] = system: colorectal cancer cell line CT26; assay: Subcutaneous transplantation tumor model, CT26 in BALB/C mice; format: in vivo; details: i.p. 10 mg/kg (nanobody 200 μg/mouse) once a day for 21 days
Protocol: (§1) Specific pathogen free (SPF)-grade BALB/C and C57BL/6 male mice, aged 7-8 weeks and weighing 20-22 g, were purchased from Shanghai Slac Laboratory Animal Co., Ltd (Laboratory animal quality certificate number: SCXK (Shanghai)2007-0005.
(§2) Mice were injected intraperitoneally with the immune agonist or complex with a dose of 10 mg/kg, or each injected intraperitoneally with 200 μg of the nanobody.
(§3) Administration route: intraperitoneal injection.
(§4) Frequency: once a day for consecutive 21 days.
(§5) Cancer cells were cultured, passaged, collected at the logarithmic phase of cells, and prepared into a cell suspension at a concentration of (1.0×10^7) per ml. Mice were injected with 0.2 ml of the cell suspension at the axilla of the right forelimb (cell number 2.0×10^6 cells/each), and were tumorigenic in about 8 days. These mice were randomly divided into 10 groups equally, namely, group A: negative control group (saline group), group B: positive control (cGAMP) group (dose: 10 mg/kg), group C: MncGAMP group (dose: 10 mg/kg), group D: anti-PD-L1 nanobody group, group E: anti-CD47 nanobody group, group F: anti-TfR1 nanobody group, group G: complex V group (dose: 10 mg/kg), group H: complex VI group (dose: 10 mg/kg), group I: complex IX group (dose: 10 mg/kg), and group J: complex VIII group (10 mg/kg). […]
(§6) The data were expressed as ×±s and processed by SPSS10.0 software. […]

[2] = system: breast cancer cell line 4T1; assay: Subcutaneous transplantation tumor model, 4T1 in BALB/C mice; format: in vivo; details: i.p. 10 mg/kg (nanobody 200 μg/mouse) once a day for 21 days
Protocol: as §1, §2, §3, §4, §5, §6

[3] = system: murine breast cancer cell line 4T1-luc; assay: Anti-metastasis of murine breast cancer 4T1-luc, in vivo optical imaging; details: 4T1-luc in BALB/C mice, i.p. 10 mg/kg (nanobody 200 μg/mouse) once a day, sites of metastasis
Protocol: Specific pathogen free (SPF)-grade BALB/C male mice, aged 7-8 weeks and weighing 20-22 g, were purchased from Shanghai Slac Laboratory Animal Co., Ltd (Laboratory animal quality certificate number: SCXK (Shanghai)2007-0005.
Mice were injected intraperitoneally with the immune agonist complex or MncGAMP with a dose of 10 mg/kg, or each injected intraperitoneally with 200 μg of the nanobody.
as §3, §4
Used herein was murine breast cancer cell line 4T1-luc (luciferase labeled tumor cells), which was provided by medical department of Zhejiang University School. The 4T1-luc cell line in BALB/C mice had similar growth and metastatic properties to breast tumors in humans, which was an animal model for […] breast cancer in humans. The 4T1-luc cell line spontaneously produced highly metastatic tumors that metastasize to the lung, liver, lymph nodes, and brain, while forming the primary site at the injection site. Luciferase was a general term for a class of enzymes in living organisms that catalyze the oxidative luminescence of luciferin or firefly aldehyde, which was derived from organisms naturally capable of luminescence.
Cancer cells were cultured, passaged, collected at the logarithmic phase of cells, and prepared into a cell suspension at a concentration of (1.0×10^7) per ml. Mice were injected with 0.2 ml of the cell suspension at the axilla of the right forelimb (2.0×10^6 cells/each), and were injected with drugs the day after inoculation with breast cancer cells. […]
Metastasis of murine breast cancer in mice was detected using a small animal in vivo optical imaging system (Perkin Elmer, IVIS Lumina XRMS Series III) on days 5, 10, 20, and 30 after drug administration, respectively, which was done at Shanghai Medical College of Fudan University.

amyloid plaques = assay: Thioflavin S staining of brain amyloid plaques in AD mice; format: in vivo; details: 10 mg/kg i.p., 60 days of administration
Protocol: Seven groups of AD mice in the above examples were tested in view of reduction of amyloid plaques in the brains of AD mice after 60 days of administration. The experiment was a thioflavin S staining experiment, and the experimental procedures were described below. 60 days after drug administration, brain tissue of mice was taken, fixed, embedded with paraffin, sectioned, de-waxed with xylene, dehydrated with ethanol gradient, and rinsed with TBS solution three times. After that, 0.3% thioflavin S (dissolved in 50% ethanol) was dropped on the tissue followed by incubation for 10 min at room temperature, rinsing with 50% ethanol three times, rinsing with TBS solution, drying in the shade, and sealing. Then the issue was examined by laser confocal microscopy (Leica, Germany) to detect the changes in the amount of amyloid plaque deposition in the brain of AD mice.

[4] = system: pro-inflammatory factors IL-1β and TNF-α; assay: Pro-inflammatory factors in brain tissues of AD mice (ELISA); format: in vivo; details: 10 mg/kg i.p., two months of administration
Protocol: To explore the effect of the above immune agonists and complexes thereof on neuroinflammation in the brain of AD mice, the content of pro-inflammatory factors in brain tissues of AD mice was determined by ELISA method. The content of pro-inflammatory factors IL-1β and TNF-α in brain tissues of AD mice were measured respectively.
Fresh brain tissues of mice were taken and weighed, and the content of inflammatory factors IL-1β and TNF-α in brain tissues was determined by using the Cloud Clone ELISA kit. […] Therefore, the immune agonist-brain-targeted nanocarrier complexes were able to eliminate the chronic neuroinflammation present in the course of AD in mice.

[5] = vs negative control tumor weight

Nc1nc(=O)c2ncn(C3OC4COP(=O)(O)OC5C(COP(=O)(O)OC3C4O)OC(n3cnc4c(N)ncnc43)C5O)c2[nH]1 (stereo not shown) [cGAMP, 2′3′-cGAMP]
Average tumor weight ([1]; n = 10, mean ± SD): 0.784 ± 0.135 g
Average tumor inhibition rate (%) [1, 5]: 65.0%
Average tumor weight ([2]; n = 10, mean ± SD): 0.862 ± 0.156 g
Average tumor inhibition rate (%) [2, 5]: 61.9%
Metastasis of breast cancer, Day 5 ([3]; day 5 after drug administration): No
Metastasis of breast cancer, Day 10 ([3]; day 10 after drug administration): No
Metastasis of breast cancer, Day 20 ([3]; day 20 after drug administration): No
Average count points of fluorescence intensity of amyloid plaques in brain tissues of AD mice (field of view area) (amyloid plaques): 1800 ± 160
IL-1β [4]: 46.18 ± 0.09 pg/mg
TNF-α [4]: 35.52 ± 0.35 pg/mg
